Assay results from ChEMBL document CHEMBL5131378, “Kinases as Potential Therapeutic Targets for Anti-coronaviral Therapy” (J Med Chem, 2022).

What was measured:
SARS-CoV-2 [1] = format: functional, organism-based, Vero E6; conditions: Severe acute respiratory syndrome coronavirus 2, Vero C1008, 72 h
SARS-CoV-2 [2] = format: functional, organism-based, Vero E6; conditions: Severe acute respiratory syndrome coronavirus 2, Vero C1008
SARS-CoV-2 [3] = format: functional, organism-based; conditions: Severe acute respiratory syndrome coronavirus 2, A549-ACE2
Human coronavirus 229E = assay: Antiviral activity against hCoV-229e at 4 uM assessed as reduction of viral RNA relative to control; format: functional; set-up: scale not given: the % may be the effect or the level left
[4] = tested on: Middle East respiratory syndrome-related coronavirus; assay: Antiviral activity against MERS-CoV; format: functional, organism-based
[5] = tested on: Middle East respiratory syndrome-related coronavirus; assay: Antiviral activity against MERS-CoV infected in 1 hr pretreated human Huh-7 cells assessed as inhibition of viral growth at 10 uM measured after 48 hrs by plaque reduction assay relative to control; format: functional; conditions: time 49 hrs
Murine coronavirus = assay: Antiviral activity against mCoV; format: functional, organism-based
[6] = molecular target: Replicase polyprotein 1ab (Severe acute respiratory syndrome coronavirus 2, UniProt P0DTD1); assay: Inhibition of SARS-CoV-2 M-protease
in vitro = conditions: human, Huh-7 cells
[7] = tested on: Middle East respiratory syndrome-related coronavirus; assay: microbe, parasite or virus in culture; conditions: Huh-7, 72 h
SARS-CoV-2 [8] = assay: microbe, parasite or virus in culture; conditions: Severe acute respiratory syndrome coronavirus 2
SARS-CoV = assay: Antiviral activity against SARS-CoV in 24 hrs pretreated primary human liver spheroids assessed as reduction in viral load at 400 to 500 nM measured after 48 hrs; format: functional, Severe acute respiratory syndrome-related coronavirus; set-up: scale not given: the % may be the effect or the level left; conditions: dose 400-500 nM, time 72 hrs
SARS-CoV-2 [9] = format: functional, Severe acute respiratory syndrome coronavirus 2, Vero E6; conditions: time 72 hrs

C=CC(=O)Nc1cc(Nc2nccc(-c3cn(C)c4ccccc34)n2)c(OC)cc1N(C)CCN(C)C [OSIMERTINIB]
IC50 (SARS-CoV-2 [1]): 3980 nM

Cc1cccc(/C=N/Nc2cc(N3CCOCC3)nc(OCCc3ccccn3)n2)c1 [APILIMOD]
IC50 (SARS-CoV-2 [2]): < 80 nM | IC50 (SARS-CoV-2 [3]): 7 nM

C[S+]([O-])c1ccc(-c2nc(-c3ccc(F)cc3)c(-c3ccncc3)[nH]2)cc1 (configuration not stated) [SB-203580]
Activity (Human coronavirus 229E): 60%

CC(C)Cn1ncc2cc(Oc3ccc(F)cc3F)c(C(=O)NCCN(C)C)cc21 [ARRY-797]
IC50 [4]: 913 nM

COC[C@H]1OC(=O)c2coc3c2[C@@]1(C)C1=C(C3=O)[C@@H]2CCC(=O)[C@@]2(C)C[C@H]1OC(C)=O [WORTMANNIN]
inhibition at 10 µM [5]: 40%

CC(C)=CCC[C@](C)(O)[C@H]1CC[C@]2(C)[C@@H]1[C@H](O)C[C@@H]1[C@@]3(C)CC[C@H](O)C(C)(C)[C@@H]3[C@@H](O[C@@H]3O[C@H](CO)[C@@H](O)[C@H](O)[C@H]3O[C@@H]3O[C@H](CO)[C@@H](O)[C@H](O)[C@H]3O)C[C@]12C [GINSENOSIDE RF]
IC50 (Murine coronavirus): 10000 nM

O=C1Cc2c([nH]c3ccc(Br)cc23)-c2ccccc2N1 [KENPAULLONE]
IC50 [6]: 1500 nM

CN1CCN(CCOc2cc(OC3CCOCC3)c3c(Nc4c(Cl)ccc5c4OCO5)ncnc3c2)CC1 [SARACATINIB]
CC50 (in vitro): > 50000 nM | EC50 [7]: 2900 nM

O=C1Cc2c([nH]c3ccc([N+](=O)[O-])cc23)-c2ccccc2N1 [ALSTERPAULLONE]
IC50 [6]: 1500 nM

CCc1cnn2c(NCc3ccc[n+]([O-])c3)cc(N3CCCC[C@H]3CCO)nc12 [DINACICLIB]
IC50 (SARS-CoV-2 [2]): 270 nM | IC50 (SARS-CoV-2 [3]): 32 nM

CO[C@H]1C[C@@H]2CC[C@@H](C)[C@@](O)(O2)C(=O)C(=O)N2CCCC[C@H]2C(=O)O[C@H]([C@H](C)C[C@@H]2CC[C@@H](O)[C@H](OC)C2)CC(=O)[C@H](C)/C=C(\C)[C@@H](O)[C@@H](OC)C(=O)[C@H](C)C[C@H](C)/C=C/C=C/C=C/1C [SIROLIMUS]
inhibition at 10 µM [5]: 40%

Cn1nc(C(C)(C)C)cc1NC(=O)Nc1ccc(Oc2ccncc2)cc1
IC50 [4]: 4630 nM

O=C(O)c1ccc2c(c1)nc(Nc1cccc(Cl)c1)c1ccncc12 [SILMITASERTIB]
IC50 (SARS-CoV-2 [8]): 1280 nM

CC(C)(C)Cn1c(N)nc2ccc(-c3[nH]c(C(C)(C)C)nc3-c3ccc(F)cc3)nc21 [RALIMETINIB]
IC50 [4]: 873 nM

CCCCCCCCCCCCCCCCOP(=O)([O-])OCC[N+](C)(C)C [MILTEFOSINE]
inhibition at 10 µM [5]: 28%

CO[C@H]1C[C@@H]2CC[C@@H](C)[C@@](O)(O2)C(=O)C(=O)N2CCCC[C@H]2C(=O)O[C@H]([C@H](C)C[C@@H]2CC[C@@H](OCCO)[C@H](OC)C2)CC(=O)[C@H](C)/C=C(\C)[C@@H](O)[C@@H](OC)C(=O)[C@H](C)C[C@H](C)/C=C/C=C/C=C/1C [EVEROLIMUS]
inhibition at 10 µM [5]: 56%

COc1ncc(-c2ccc3nccc(-c4ccnnc4)c3c2)cc1NS(=O)(=O)c1ccc(F)cc1F [OMIPALISIB]
IC50 (SARS-CoV-2 [1]): 14 nM

CCc1nc(C(N)=O)c(Nc2ccc(N3CCC(N4CCN(C)CC4)CC3)c(OC)c2)nc1NC1CCOCC1 [GILTERITINIB]
IC50 [4]: 807 nM | IC50 (SARS-CoV-2 [8]): 807 nM

CCS(=O)(=O)N1CC(CC#N)(n2cc(-c3ncnc4[nH]ccc34)cn2)C1 [BARICITINIB]
Activity (SARS-CoV): 30%

NC(=O)N1CCC(CC(=O)N2CCC([C@H]3c4ncc(Br)cc4CCc4cc(Cl)cc(Br)c43)CC2)CC1 [LONAFARNIB]
IC50 (SARS-CoV-2 [1]): 4990 nM

CCN1CCN(Cc2ccc(Nc3ncc(F)c(-c4cc(F)c5nc(C)n(C(C)C)c5c4)n3)nc2)CC1 [ABEMACICLIB]
Activity (SARS-CoV-2 [9]): 60% | EC50 (SARS-CoV-2 [1]): 2160 nM

CNS(=O)(=O)Nc1nccc(Cc2c(C)c3ccc(Oc4ncccn4)cc3oc2=O)c1F [AVUTOMETINIB]
IC50 (SARS-CoV-2 [1]): 600 nM
